Results taken from patent US12281139B2, “Mogrosides, methods of obtaining the same, and uses” (The Coca-Cola Company, priority 2018, dated 2025).

How the values were obtained:
Assay type in all cases: in vivo
[1] = Sensory evaluation of CC-00367 and CC-00371 vs Reb M 95% (trained sensory panel taste test, mock beverage samples, 400 ppm in water at 4° C.); conditions: mean panel score; for Bitter Aftertaste Intensity: bitter intensity 1 minute after tasting; for Overall Max Sweetness: from the time the sip is taken up to 1 minute; for Bitter Intensity In Mouth: maximum level of bitterness in mouth during 5 seconds; for Sweet Intensity In Mouth: maximum level of sweetness in mouth during 5 seconds; for Sweet Linger Intensity: sweet intensity 1 minute after tasting
Experimental: FIG. 1: Taste attribute comparison of CC-00371 and CC-00367 compared to Reb M 95% (all at 400 ppm) in water at 4° C.
(§1) The following mock beverage samples were prepared:
(§2) A trained sensory panel conducted the taste test. Samples were served at approximately 4° C. Panelists were instructed to take 1 sip of the sample, hold in mouth for 5 seconds, expectorate, and rate the given attributes. A 5 minute break was placed between each sample and panelists were instructed to cleanse their palates with at least 1 bite of unsalted cracker and 2 sips of filtered water. Samples were randomized within each session for each panelist.
(§3) The following attributes were evaluated: • Sweet taste intensity: maximum level of sweetness in mouth during 5 seconds • Bitter taste intensity: maximum level of bitterness in mouth during 5 seconds • Overall maximum sweet intensity: maximum sweet intensity experienced from the time the sip is taken up to 1 minute • Overall maximum bitter intensity: maximum sweet intensity experienced from the time the sip is taken up to 1 minute • Sweet linger intensity: sweet intensity 1 minute after tasting the sample • Bitter aftertaste intensity: bitter intensity 1 minute after tasting the sample
(§4) An ANOVA, with Sample as fixed effects and Panelist as random effects was used to determine significance between the samples for each attribute at the 90% and 95% Confidence Level, two-tailed. Fishers LSD was used to determine significant differences between mean scores.
The results are shown in Table 75 and depicted in FIG. 1: […]

[2] = as above; conditions: mean panel score, from the time the sip is taken up to 1 minute
[3] = Sensory evaluation of CC-00401 and CC-00403 vs 7% Sucrose (trained sensory panel taste test, mock beverage samples at 4° C.); parameters: Sweetness In Mouth / Sweetness Overall Max / Bitterness In Mouth / Bitterness Overall Max: scale not given here; conditions: mean ± standard deviation, test sweeteners 400 ppm in water, reference 7% sucrose
Experimental: as §1, §2, §3, §4

[4] = Sensory evaluation of CC-00436 vs 5% Sucrose (trained sensory panel taste test, mock beverages at 4° C.); parameters: Sweetness In Mouth / Sweetness Overall Max / Bitterness In Mouth / Bitterness Overall Max: scale not given here; conditions: mean ± standard deviation, CC-00436 400 ppm in water, reference 5% sucrose
Experimental: The following mock beverages were prepared: A trained sensory panel conducted the taste test. Samples were served at approximately 4° C. Panelists were instructed to take 1 sip of the sample, hold in mouth for 5 seconds, expectorate, and rate the given attributes. A 5 minute break was placed between each sample and panelists were instructed to cleanse their palates with at least 1 bite of unsalted cracker and 2 sips of filtered water. Samples were randomized within each session for each panelist. The following attributes were evaluated: • Sweet taste intensity: maximum level of sweetness in mouth during 5 seconds • Bitter taste intensity: maximum level of bitterness in mouth during 5 seconds • Overall maximum sweet intensity: maximum sweet intensity experienced from the time the sip is taken up to 1 minute • Overall maximum bitter intensity: maximum sweet intensity experienced from the time the sip is taken up to 1 minute • Sweet linger intensity: sweet intensity 1 minute after tasting the sample • Bitter aftertaste intensity: bitter intensity 1 minute after tasting the sample

| Compound | Bitter Aftertaste Intensity [1] | Overall Max Sweetness [1] | Bitter Intensity In Mouth [1] | Sweet Intensity In Mouth [1] | Sweet Linger Intensity [1] | Overall Max Bitterness** [2] | Bitterness In Mouth [3] | Bitterness Linger (~60 sec) [3] | Bitterness Overall Max [3] | Sweetness In Mouth [3] | Sweetness Linger (~60 sec) [3] | Sweetness Overall Max [3] | Bitterness In Mouth [4] | Bitterness Linger (~60 sec) [4] | Bitterness Overall Max [4] | Sweetness In Mouth [4] | Sweetness Linger (~60 sec) [4] | Sweetness Overall Max [4] |
| --- | --- | --- | --- | --- | --- | --- | --- | --- | --- | --- | --- | --- | --- | --- | --- | --- | --- | --- |
| C[C@H](CC[C@@H](O[C@@H]1OC(CO[C@@H]2OC(CO)[C@@H](O)[C@H](O)C2O)C(O)[C@@H](O)C1O[C@@H]1OC(CO)[C@@H](O[C@@H]2OC(CO)[C@@H](O)[C@H](O)C2O)[C@H](O)C1O)C(C)(C)O)[C@H]1CC[C@@]2(C)C3CC=C4[C@@H](CC[C@H](O[C@@H]5OC(CO[C@@H]6OC(CO)[C@@H](O)[C@H](O)C6O)[C@@H](O)[C@H](O)C5O)C4(C)C)[C@]3(C)[C@H](O)C[C@]12C (stereo partly drawn) [CC-00367, mogro-3-O-[β-D-glucopyranosyl (1→6)-β-D-glucopyranoside]-24-O-{[(β-D-glucopyranosyl-(1→4))-β-D-glucopyranosyl-(1→2)]-[β-D-glucopyranosyl-(1→6)]-β-D-glucopyranoside}] | 1.4 B | 4.9 B | 1.3 B | 3.8 B | 2.6 B | 2.2 B | – | – | – | – | – | – | – | – | – | – | – | – |
| C[C@H](CC[C@@H](O[C@@H]1O[C@H](CO[C@@H]2O[C@H](CO[C@@H]3O[C@H](CO)[C@@H](O)[C@H](O)[C@H]3O)[C@@H](O)[C@H](O)[C@H]2O)[C@@H](O)[C@H](O)[C@H]1O[C@@H]1O[C@H](CO)[C@@H](O)[C@H](O)[C@H]1O)C(C)(C)O)[C@H]1CC[C@@]2(C)[C@@H]3CC=C4[C@@H](CC[C@H](O[C@@H]5O[C@H](CO[C@@H]6O[C@H](CO)[C@@H](O)[C@H](O)[C@H]6O)[C@@H](O)[C@H](O)[C@H]5O)C4(C)C)[C@]3(C)[C@H](O)C[C@]12C [CC-00403] | – | – | – | – | – | – | 2.6 ± 3.0 | 2.2 ± 3.4 | 5.0 ± 3.4 | 6.3 ± 1.4 | 3.1 ± 2.5 | 7.0 ± 1.5 | – | – | – | – | – | – |
| C[C@H](CC[C@@H](O[C@@H]1OC(CO[C@@H]2OC(CO)[C@@H](O)[C@H](O)C2O)C(O)[C@@H](O)C1O[C@@H]1OC(CO)[C@@H](O)[C@H](O)C1O)C(C)(C)O)[C@H]1CC[C@@]2(C)C3CC=C4[C@@H](CC[C@H](O[C@@H]5OC(CO[C@@H]6OC(CO[C@H]7OC(CO)[C@@H](O)[C@H](O)C7O)[C@@H](O)[C@H](O)C6O)[C@@H](O)[C@H](O)C5O)C4(C)C)[C@]3(C)[C@H](O)C[C@]12C (stereo partly drawn) [CC-00436, mogro-3-O-[α-D-glucopyranosyl-(1→6)-β-D-glucopyranosyl (1→6)-β-D-glucopyranoside]-24-O-{[β-D-glucopyranosyl-(1→2)]-[β-D-glucopyranosyl-(1→6)]-β-D-glucopyranoside}] | – | – | – | – | – | – | – | – | – | – | – | – | 1.5 ± 1.9 | 0.7 ± 0.8 | 2.1 ± 1.7 | 5.2 ± 2.1 | 2.9 ± 2.5 | 5.7 ± 2.1 |
| C[C@H](CC[C@@H](O[C@@H]1O[C@H](CO[C@@H]2O[C@H](CO)[C@@H](O)[C@H](O)[C@H]2O)[C@@H](O)[C@H](O)[C@H]1O[C@@H]1O[C@H](CO)[C@@H](O)[C@H](O)[C@H]1O)C(C)(C)O)[C@H]1CC[C@@]2(C)[C@@H]3CC=C4[C@@H](CC[C@H](O[C@@H]5O[C@H](CO[C@@H]6O[C@H](CO)[C@@H](O)[C@H](O)[C@H]6O)[C@@H](O)[C@H](O)[C@H]5O)C4(C)C)[C@]3(C)[C@H](O)C[C@]12C [Mog V] | 0.4 | 8.5 | 0.5 | 7.0 | 3.5 | 1.1 | – | – | – | – | – | – | – | – | – | – | – | – |
| C=C1C[C@@]23CC[C@H]4[C@@](C)(CCC[C@@]4(C)C(=O)O[C@@H]4O[C@H](CO)[C@@H](O)[C@H](O[C@@H]5O[C@H](CO)[C@@H](O)[C@H](O)[C@H]5O)[C@H]4O[C@@H]4O[C@H](CO)[C@@H](O)[C@H](O)[C@H]4O)[C@@H]2CC[C@]1(O[C@@H]1O[C@H](CO)[C@@H](O)[C@H](O[C@@H]2O[C@H](CO)[C@@H](O)[C@H](O)[C@H]2O)[C@H]1O[C@@H]1O[C@H](CO)[C@@H](O)[C@H](O)[C@H]1O)C3 [Reb M 95%, rebaudioside M, reference compound] | 1.7 B | 9.2 A | 1.0 B | 8.0 A | 5.3 A | 2.0 B | – | – | – | – | – | – | – | – | – | – | – | – |
| OC[C@H]1O[C@@](CO)(O[C@H]2O[C@H](CO)[C@@H](O)[C@H](O)[C@H]2O)[C@@H](O)[C@@H]1O [Sucrose, sucrose, reference compound] | – | – | – | – | – | – | 2.3 ± 2.3 | 0.8 ± 1.1 | 2.8 ± 2.1 | 7.2 ± 0.9 | 2.1 ± 1.8 | 7.4 ± 0.8 | 0.15 ± 0.2 | 0.1 ± 0.1 | 0.3 ± 0.3 | 4.3 ± 2.1 | 1.6 ± 1.8 | 4.5 ± 1.9 |
| mogro-3-O-[β-D-glucopyranosyl (1→6)-β-D-glucopyranoside]-24-O-{[β-D-glucopyranosyl-(1→2)]-[(β-D-glucopyranosyl-(1β3))-β-D-glucopyranosyl-(1β6)]-β-D-glucopyranoside} [CC-00371] | 1.5 B | 9.3 A | 0.9 B | 7.5 A | 5.8 A | 2.1 B | – | – | – | – | – | – | – | – | – | – | – | – |
